Tested on: anti-mitragynine antibody
Test: Cross reactivity of the anti-mitragynine antibody against kratom alkaloids and mitragynine metabolites
Format: binding, Balb/c mice
Settings: for Cross Reactivity (%): tested concentration (ng/mL): Mitragynine 50, 7-hydroxy mitragynine 35,000-40,000, Paynantheine 25,000-35,000, Speciociliatine 25,000-35,000, 16-carboxy mitragynine 300-360, 9-Hydroxycorynantheidine 3,125-4,000; for cross reactivity (in words): metabolites of mitragynine, antibody derived from the BSA immunogen
Description: In a particular embodiment of the invention, the BSA-containing immunogen of Example 4 (Compound 6) was administered to Balb/c mice in a series of injections as is routine in the art. Alternatively, other mammals are suitable for antibody production. Screening of anti-serum samples taken from the immunized mice was performed to assess antibody titer and to evaluate the ability of antibodies in the samples to bind to enzyme-donor conjugate described in Example 6.
In particular, β-galactosidase enzyme donor polypeptide fragment combines with a β-galactosidase enzyme acceptor fragment to form active β-galactosidase enzyme. The active enzyme complex is capable of transforming a substrate into a product that is differentially detectable. Usually, the product is a different color from the substrate and is quantified using spectrophotometric methods. […] Therefore, the enzyme-catalyzed reaction rate is directly proportional to the concentration of target analyte present in the specimen tested. A preferred β-galactosidase enzyme donor is ED28, a polypeptide containing residues 6-45 of β-galactosidase, with cysteines at positions 1 and 46 (relative to the numbering of the original β-galactosidase fragment).
The cross reactivity of the anti-mitragynine antibody derived from the immunogen described above was tested against certain kratom alkaloids and metabolites of mitragynine shown below.

Row | Compound | Cross Reactivity (%) | cross reactivity (in words)
1 | CC[C@@H]1CN2CC[C@@]3(O)C(=Nc4cccc(OC)c43)[C@@H]2C[C@@H]1/C(=C\OC)C(=O)OC [7-hydroxy mitragynine] | ≤0.2% | –
2 | CC[C@@H]1CN2CCc3c([nH]c4cccc(OC)c34)[C@@H]2C[C@@H]1/C(=C\OC)C(=O)O [16-carboxy mitragynine] | 13.9-16.7% | low levels of cross reactivity
3 | C=C[C@H]1CN2CCc3c([nH]c4cccc(OC)c34)[C@@H]2C[C@@H]1/C(=C\OC)C(=O)OC [Paynantheine] | ≤0.2% | –
4 | CC[C@@H]1CN2CCc3c([nH]c4cccc(O)c34)[C@@H]2C[C@@H]1/C(=C\OC)C(=O)OC [9-Hydroxycorynantheidine, (E)-2-[(25,35,12b5)-3-ethyl-8-hydroxy-1,2,3,4,6,7,12,12b-octahydroindolo [2,3-a]quinozilizin-2-yl]-3-methoxy propenoic acid methyl ester] | 1.25-1.6% | low levels of cross reactivity
5 | CC[C@@H]1CN2CCc3c([nH]c4cccc(OC)c34)[C@@H]2C[C@@H]1/C(=C\OC)C(=O)OC [Mitragynine, methyl (E)-2-[(2S,3S,12bS)-3-ethyl-8-methoxy-1,2,3,4,6,7,12,12b-octahydroindolo[2,3-a]quinolizin-2-yl]-3-methoxyprop-2-enoate] | 100% | –
6 | CC[C@@H]1CN2CCc3c([nH]c4cccc(OC)c34)[C@H]2C[C@@H]1/C(=C\OC)C(=O)OC [Speciociliatine] | ≤0.2% | –
